Laboratory results: publication PMC6161302, “Oral Bioavailability of Kinsenoside in Beagle Dogs Measured by LC-MS/MS: Improvement of Ex Vivo Stability of a Lactone-Containing Compound” (Pharmaceutics, 2018)
Read-outs that look alike come from different tables or passages of the source.

Legend:
[1] = Pharmacokinetic and bioavailability study of KD in beagle dogs (intravenous and oral); format: in vivo, beagle dog; details: for Tmax / AUC(0-t): beagle; for k el: read-out: λz (converted)
Excerpt: The validated method was applied to a preclinical pharmacokinetic and bioavailability study of KD in beagle dogs following intravenous and oral administration. The study protocol (Project ID: HUST-D-201802004) was approved on 5 March 2018 by the Animal Ethics Committee in Tongji Medical College, Huazhong University of Science and Technology (Wuhan, China). Six beagle dogs (3 males and 3 females) weighing 10.0 ± 2.0 kg were purchased from Ruikesen Experimental Animal Co., Ltd. (Wuhan, China). All dogs were individually housed at a temperature of 25 °C and 50% relative humidity under a 12 h light/dark cycle. A laboratory standard diet and water were provided ad libitum. After overnight fasting with unlimited access to water, the six beagle dogs were randomly divided into two groups. One group was intravenously injected via lateral saphenous vein with 3 mg/kg KD, while the other group was given a single oral dose of 3 mg/kg KD. After a 7-day washout period, each group received the other treatment. For intravenous administration, blood samples (approximately 1 mL) were collected via cephalic vein into 3 mL K2EDTA-containing vacutainer tubes at pre-dose and at 0.083, 0.25, 0.5, 0.75, 1, 1.25, 1.5, 2, 2.5, 3, 4, and 5 h after administration. For oral administration, blood samples (approximately 1 mL) were collected at pre-dose and at 0.25, 0.5, 0.75, 1, 1.25, 1.5, 2, 2.5, 3, 4, 5, 6, and 7 h post-dose. Blood samples were maintained on wet ice and centrifuged under 4 °C at 3500 × g for 5 min to obtain plasma. Plasma samples were immediately transferred to pre-cooled plastic Eppendorf tubes and stored at −80 °C until analyzed.
The pharmacokinetic parameters were calculated using noncompartmental analysis by Phoenix WinNonlin software (Version 6.4, Pharsight Corporation, Princeton, NC, USA). The maximum plasma concentration (Cmax) and time to reach Cmax (Tmax) were obtained directly from the plasma concentration time course. The area under the plasma concentration versus time curve (AUC) from time zero to the last measured time point (AUC0–t) and from time zero to infinity (AUC0–∞) were estimated using the log-linear trapezoidal rule, while the elimination half-life (t1/2), the total body clearance (CL), and the apparent volume of distribution (Vd) were processed by Phoenix WinNonlin software. Oral bioavailability (F) was calculated using the formula F = (AUCpo/AUCiv) × (Doseiv/Dosepo).

[2] = Stability of KD in fresh dog whole blood; format: in vitro ADME, beagle dog
Method: (§1) The stability of KD in fresh dog whole blood and plasma was studied by decreasing pH, lowering temperature, and adding different esterase inhibitors. All experiments were performed in triplicate using three different lots of fresh dog whole blood or plasma. To decrease the pH of the matrixes, 1% formic acid (FA) or 1% AA was individually added to the fresh blank whole blood or plasma with a ratio of 1:9. Likewise, DDVP, NaF, and PMSF were separately added to fresh blank whole blood or plasma to obtain a final concentration of 50 mM. After 5 min pre-incubation, KD was spiked with pretreated whole blood or plasma to obtain final concentrations of 15, 150, and 1500 ng/mL. The whole blood mixture was maintained at room temperature or on wet ice for 2 h except for samples of time zero, which were centrifuged immediately to collect plasma, while the plasma mixture was maintained at room temperature or on wet ice for 0, 2, and 6 h. Then, the obtained plasma samples were cleaned up using the previously mentioned sample preparation procedures. The remaining percentage of KD was calculated by dividing the plasma concentration of KD under different incubation conditions by the concentration of time zero samples [13].

[3] = Stability of KD in fresh dog plasma; format: in vitro ADME, beagle dog
Method: as §1

[4] = Method-validation stability of kinsenoside in beagle dog plasma under various storage conditions; format: in vitro ADME
Method: The stability of stock solutions (2.5 mg/mL for KD and 1 mg/mL for IS) and working solutions (125 and 50,000 ng/mL for KD and 500 ng/mL for IS) was evaluated at room temperature for 6 h and at −80 °C for 31 days. The matrix stability was evaluated from three replicates of each QC sample stored in different conditions using freshly prepared calibration standards. The QC samples were analyzed after storage on wet ice for 2 h (short-term stability) and at −80 °C for 21 days (long-term stability). The freeze–thaw stability was determined after freezing at −80 °C and thawing on wet ice for three cycles. To evaluate the post-preparative stability, QC samples were analyzed after being held in the autosampler for 24 h at 4 °C. The samples for stability evaluation were considered stable if the deviation was within ±15% of the nominal concentration.

liver microsomal enzyme = test system: liver microsomal enzyme; set-up: method as in doi:10.5478/MSL.2015.6.2.48; details: cited from earlier work
[5] = set-up: method as in PMID 26686829; details: cited from earlier work
[6] = both sexes, dog, plasma, beagle dogs, intravenous, 3 mg/kg
[7] = both sexes, dog, plasma, beagle dogs, oral, 3 mg/kg
[8] = plasma samples after three freeze–thaw cycles, nominal 15 ng/mL
[9] = plasma samples after three freeze–thaw cycles, nominal 150 ng/mL
[10] = plasma samples after three freeze–thaw cycles, nominal 1500 ng/mL
[11] = plasma samples on wet ice for 2 h, nominal 15 ng/mL
[12] = plasma samples on wet ice for 2 h, nominal 150 ng/mL
[13] = plasma samples on wet ice for 2 h, nominal 1500 ng/mL
[14] = plasma samples stored at −80 °C for 21 days, nominal 15 ng/mL
[15] = plasma samples stored at −80 °C for 21 days, nominal 150 ng/mL
[16] = plasma samples stored at −80 °C for 21 days, nominal 1500 ng/mL
[17] = post-preparative samples stored at 4 °C for 24 h, nominal 15 ng/mL
[18] = post-preparative samples stored at 4 °C for 24 h, nominal 150 ng/mL
[19] = post-preparative samples stored at 4 °C for 24 h, nominal 1500 ng/mL

## O=C1C[C@@H](O[C@@H]2O[C@H](CO)[C@@H](O)[C@H](O)[C@H]2O)CO1 [kinsenoside, Kinsenoside]
[1]; both sexes, dog, plasma, iv, 3 mg/kg, beagle dogs
  Tmax: 5 min
[1]; both sexes, dog, plasma, iv, 3 mg/kg, beagle dogs, intravenous, 3 mg/kg, read-out: AUC0–t
  AUC(0-t): 6820 ± 295 ng·h/mL
[1]; both sexes, dog, plasma, iv, 3 mg/kg, beagle dogs, intravenous, 3 mg/kg, read-out: mean AUC0-t (converted)
  AUC(0-t): 114 ng·h/mL
[1]; both sexes, dog, plasma, po, 3 mg/kg, beagle dogs
  Tmax: ~62.4 min
[1]; both sexes, dog, plasma, po, 3 mg/kg, beagle dogs, oral, 3 mg/kg, read-out: AUC0–t
  AUC(0-t): 1880 ± 17.6 ng·h/mL
[1]; both sexes, dog, plasma, po, 3 mg/kg, beagle dogs, oral, 3 mg/kg, read-out: mean AUC0-t (converted)
  AUC(0-t): 31.3 ng·h/mL
[1]; [6]
  AUC(0-inf): 6830 ± 295 ng·h/mL
  Cmax: 11400 ng/mL
  Vd: 0.3 ± 0.0171 L/kg
  clearance: 7.33 mL/min/kg
  half-life: 28.2 ± 0.78 min
  k el: 0.000408 s⁻¹
[1]; both sexes, dog, plasma, beagle dogs, oral 3 mg/kg vs intravenous 3 mg/kg, read-out: Bioavailability (absolute oral)
  bioavailability: 27.6%
[1]; [7]
  AUC(0-inf): 1910 ± 42.5 ng·h/mL
  Cmax: 965 ± 59.7 ng/mL
  half-life: 54.9 ± 5.64 min
  k el: 0.000212 s⁻¹
[1]; comparison with literature values
  bioavailability of KD relative to the majority of extensively researched isoflavone glycosides: at least 4 fold
[2]; 2 h incubation at room temperature
  KD remaining: 60%
[2]; 2 h incubation on wet ice, three concentration levels (15, 150, 1500 ng/mL)
  KD remaining: around 90%
[3]; dog plasma, 2 h incubation on wet ice
  KD remaining: more than 90%
[3]; neutral and acidified dog plasma, 6 h incubation on wet ice
  percentage remaining of KD: around 85%
[4]; [8]
  Accuracy (stability, % of nominal): 89.53%
  Calculated Conc.: 13.43 ± 0.46 ng/mL
[4]; [9]
  Accuracy (stability, % of nominal): 90.89%
  Calculated Conc.: 136.33 ± 4.50 ng/mL
[4]; [10]
  Accuracy (stability, % of nominal): 92.44%
  Calculated Conc.: 1386.67 ± 24.94 ng/mL
[4]; [11]
  Accuracy (stability, % of nominal): 95.11%
  Calculated Conc.: 14.27 ± 0.74 ng/mL
[4]; [12]
  Accuracy (stability, % of nominal): 93.87%
  Calculated Conc.: 140.80 ± 2.98 ng/mL
[4]; [13]
  Accuracy (stability, % of nominal): 91.61%
  Calculated Conc.: 1374.13 ± 24.63 ng/mL
[4]; [14]
  Accuracy (stability, % of nominal): 90.89%
  Calculated Conc.: 13.63 ± 0.36 ng/mL
[4]; [15]
  Accuracy (stability, % of nominal): 91.78%
  Calculated Conc.: 137.67 ± 2.62 ng/mL
[4]; [16]
  Accuracy (stability, % of nominal): 93.78%
  Calculated Conc.: 1406.67 ± 26.25 ng/mL
[4]; [17]
  Accuracy (stability, % of nominal): 89.47%
  Calculated Conc.: 13.42 ± 0.37 ng/mL
[4]; [18]
  Accuracy (stability, % of nominal): 91.67%
  Calculated Conc.: 137.50 ± 4.99 ng/mL
[4]; [19]
  Accuracy (stability, % of nominal): 88.89%
  Calculated Conc.: 1333.33 ± 34.60 ng/mL
Liver microsomal enzyme
  stability against liver microsomal enzyme-associated metabolism: stable
[5]
  stability in rat plasma (ex vivo): unstable
